Results published in ChEMBL document CHEMBL1201862, “PubChem BioAssay data set” (2004).
Active and inactive are the calls of the source.

How the values were obtained:
[1] = target: Voltage-dependent T-type calcium channel subunit alpha-1H (Homo sapiens, UniProt O95180); assay type: functional;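 note: channel activity triggered by adding a high calcium stimulation buffer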
Beta-galactosidase = Beta-galactosidase (Escherichia coli, UniProt Q8VNN2); assay: PubChem AID 485352; assay type: functional
[2] = target: T1, Type-1 angiotensin II receptor (Homo sapiens, UniProt P30556); assay: antagonism of angiotensin II type 1 receptor – cell-based, uHTS hits, selectivity assay for APJ receptor antagonist project, dose response (AID 463214); assay type: functional;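 note: antagonist potency against angiotensin II stimulated AT1 response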
T1 sequence (P30556 whole entry): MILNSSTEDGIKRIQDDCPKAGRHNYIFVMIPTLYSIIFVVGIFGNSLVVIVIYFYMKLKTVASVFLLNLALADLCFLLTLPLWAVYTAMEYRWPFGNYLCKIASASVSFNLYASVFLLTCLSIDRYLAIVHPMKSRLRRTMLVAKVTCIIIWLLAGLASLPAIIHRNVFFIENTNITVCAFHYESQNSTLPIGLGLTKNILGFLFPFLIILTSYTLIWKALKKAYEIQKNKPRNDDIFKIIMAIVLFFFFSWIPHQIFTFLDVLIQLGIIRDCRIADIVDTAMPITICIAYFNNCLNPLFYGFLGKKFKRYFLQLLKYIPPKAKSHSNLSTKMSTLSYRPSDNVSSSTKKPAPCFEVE

Aminopeptidase N = target: T2, Aminopeptidase N (Plasmodium falciparum FcB1/Columbia, UniProt O96935); assay: malaria alanyl aminopeptidase activity blockers – biochemical, fluorogenic H-Leu-NHMec substrate, 1536-well (AID 1445); design: species or system Plasmodium falciparum 3D7, 3D7
T2 sequence (O96935 whole entry): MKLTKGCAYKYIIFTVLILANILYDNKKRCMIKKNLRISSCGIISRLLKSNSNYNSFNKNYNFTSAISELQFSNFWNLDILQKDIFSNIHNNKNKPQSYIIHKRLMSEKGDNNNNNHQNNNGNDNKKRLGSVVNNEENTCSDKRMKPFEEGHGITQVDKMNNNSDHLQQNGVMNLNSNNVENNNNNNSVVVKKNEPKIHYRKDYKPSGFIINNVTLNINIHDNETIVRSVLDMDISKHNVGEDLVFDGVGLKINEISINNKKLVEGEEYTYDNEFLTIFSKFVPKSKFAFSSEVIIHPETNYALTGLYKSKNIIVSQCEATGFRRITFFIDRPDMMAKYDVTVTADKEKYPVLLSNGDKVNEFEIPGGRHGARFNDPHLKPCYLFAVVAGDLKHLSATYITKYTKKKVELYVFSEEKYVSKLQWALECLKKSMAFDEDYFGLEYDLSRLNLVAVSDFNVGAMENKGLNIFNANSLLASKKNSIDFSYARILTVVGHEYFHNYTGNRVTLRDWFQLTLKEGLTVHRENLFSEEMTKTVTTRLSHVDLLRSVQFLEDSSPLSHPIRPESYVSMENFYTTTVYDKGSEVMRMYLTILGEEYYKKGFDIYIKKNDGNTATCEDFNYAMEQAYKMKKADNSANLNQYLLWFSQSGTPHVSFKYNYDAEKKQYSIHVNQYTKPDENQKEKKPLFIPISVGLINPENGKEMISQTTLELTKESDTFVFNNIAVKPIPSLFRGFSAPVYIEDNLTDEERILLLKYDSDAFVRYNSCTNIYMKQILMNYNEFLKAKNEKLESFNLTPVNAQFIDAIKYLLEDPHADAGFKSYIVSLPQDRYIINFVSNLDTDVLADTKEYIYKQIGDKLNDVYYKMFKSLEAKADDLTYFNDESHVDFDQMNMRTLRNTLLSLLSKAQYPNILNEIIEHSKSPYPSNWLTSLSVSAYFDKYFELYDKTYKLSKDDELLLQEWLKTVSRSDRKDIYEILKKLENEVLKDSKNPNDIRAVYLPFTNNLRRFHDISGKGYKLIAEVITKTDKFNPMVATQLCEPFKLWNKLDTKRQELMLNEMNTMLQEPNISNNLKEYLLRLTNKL

[3] = target: T3, Polyadenylate-binding protein 1 (Homo sapiens, UniProt P11940); assay: MLLE domain peptide-binding blockers, IC50 – biochemical, fluorescence polarization, FITC-PAM2 peptide, dose response (AID 602259); assay type: functional; conditions: read-out: IC50_Mean
[4] = target: T3, Polyadenylate-binding protein 1; assay: MLLE binding blockers, Cy5 peptide tracer – biochemical, fluorescence polarization, Cy5-PAM2 peptide, secondary, miRNA deadenylation inhibitor project, dose response (AID 602260); assay type: functional; conditions: read-out: IC50_Mean
Escherichia coli = assay: microbe, parasite or virus in culture
[5] = target: T4, Alkaline phosphatase, tissue-nonspecific isozyme (Homo sapiens, UniProt P05186); assay: potency against alkaline phosphatase TNAP – biochemical, luminescent, dose response, SAR follow-up (AID 1056)
T4 sequence (P05186 whole entry): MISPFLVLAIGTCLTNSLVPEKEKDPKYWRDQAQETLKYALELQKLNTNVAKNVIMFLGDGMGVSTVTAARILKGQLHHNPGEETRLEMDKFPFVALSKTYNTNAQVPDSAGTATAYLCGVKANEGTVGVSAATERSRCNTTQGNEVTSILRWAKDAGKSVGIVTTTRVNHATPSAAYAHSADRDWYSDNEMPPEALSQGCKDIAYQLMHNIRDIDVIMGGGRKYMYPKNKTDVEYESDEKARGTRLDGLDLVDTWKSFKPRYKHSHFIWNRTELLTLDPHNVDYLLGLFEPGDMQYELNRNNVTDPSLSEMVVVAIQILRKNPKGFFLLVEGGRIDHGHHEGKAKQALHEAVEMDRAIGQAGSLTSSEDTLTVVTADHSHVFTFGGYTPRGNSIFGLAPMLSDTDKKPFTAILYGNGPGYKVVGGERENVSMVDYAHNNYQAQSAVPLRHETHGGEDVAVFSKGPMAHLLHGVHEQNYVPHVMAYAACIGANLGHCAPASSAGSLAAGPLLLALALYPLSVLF

[6] = HEK-293T cell viability reduction – luminescence, B-cell screen hits, cytotoxicity control for BCR NF-kB inhibitor project, dose response (AID 489021); assay type: functional, cell-based;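 note: HEK-293T cells carrying an NF-kB luciferase reporter; cells exposed to compound for about 14 hours before viability readout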
[7] = target: Alkaline phosphatase, placental type (Homo sapiens, UniProt P05187); assay: human placental alkaline phosphatase inhibition – biochemical, luminescence, confirmation (AID 1512); assay type: functional
Vero = assay: cells; assay type: functional, cell-based; conditions: Chlorocebus sabaeus

Voltage-dependent T-type calcium channel subunit alpha-1H, sequence (O95180 whole entry): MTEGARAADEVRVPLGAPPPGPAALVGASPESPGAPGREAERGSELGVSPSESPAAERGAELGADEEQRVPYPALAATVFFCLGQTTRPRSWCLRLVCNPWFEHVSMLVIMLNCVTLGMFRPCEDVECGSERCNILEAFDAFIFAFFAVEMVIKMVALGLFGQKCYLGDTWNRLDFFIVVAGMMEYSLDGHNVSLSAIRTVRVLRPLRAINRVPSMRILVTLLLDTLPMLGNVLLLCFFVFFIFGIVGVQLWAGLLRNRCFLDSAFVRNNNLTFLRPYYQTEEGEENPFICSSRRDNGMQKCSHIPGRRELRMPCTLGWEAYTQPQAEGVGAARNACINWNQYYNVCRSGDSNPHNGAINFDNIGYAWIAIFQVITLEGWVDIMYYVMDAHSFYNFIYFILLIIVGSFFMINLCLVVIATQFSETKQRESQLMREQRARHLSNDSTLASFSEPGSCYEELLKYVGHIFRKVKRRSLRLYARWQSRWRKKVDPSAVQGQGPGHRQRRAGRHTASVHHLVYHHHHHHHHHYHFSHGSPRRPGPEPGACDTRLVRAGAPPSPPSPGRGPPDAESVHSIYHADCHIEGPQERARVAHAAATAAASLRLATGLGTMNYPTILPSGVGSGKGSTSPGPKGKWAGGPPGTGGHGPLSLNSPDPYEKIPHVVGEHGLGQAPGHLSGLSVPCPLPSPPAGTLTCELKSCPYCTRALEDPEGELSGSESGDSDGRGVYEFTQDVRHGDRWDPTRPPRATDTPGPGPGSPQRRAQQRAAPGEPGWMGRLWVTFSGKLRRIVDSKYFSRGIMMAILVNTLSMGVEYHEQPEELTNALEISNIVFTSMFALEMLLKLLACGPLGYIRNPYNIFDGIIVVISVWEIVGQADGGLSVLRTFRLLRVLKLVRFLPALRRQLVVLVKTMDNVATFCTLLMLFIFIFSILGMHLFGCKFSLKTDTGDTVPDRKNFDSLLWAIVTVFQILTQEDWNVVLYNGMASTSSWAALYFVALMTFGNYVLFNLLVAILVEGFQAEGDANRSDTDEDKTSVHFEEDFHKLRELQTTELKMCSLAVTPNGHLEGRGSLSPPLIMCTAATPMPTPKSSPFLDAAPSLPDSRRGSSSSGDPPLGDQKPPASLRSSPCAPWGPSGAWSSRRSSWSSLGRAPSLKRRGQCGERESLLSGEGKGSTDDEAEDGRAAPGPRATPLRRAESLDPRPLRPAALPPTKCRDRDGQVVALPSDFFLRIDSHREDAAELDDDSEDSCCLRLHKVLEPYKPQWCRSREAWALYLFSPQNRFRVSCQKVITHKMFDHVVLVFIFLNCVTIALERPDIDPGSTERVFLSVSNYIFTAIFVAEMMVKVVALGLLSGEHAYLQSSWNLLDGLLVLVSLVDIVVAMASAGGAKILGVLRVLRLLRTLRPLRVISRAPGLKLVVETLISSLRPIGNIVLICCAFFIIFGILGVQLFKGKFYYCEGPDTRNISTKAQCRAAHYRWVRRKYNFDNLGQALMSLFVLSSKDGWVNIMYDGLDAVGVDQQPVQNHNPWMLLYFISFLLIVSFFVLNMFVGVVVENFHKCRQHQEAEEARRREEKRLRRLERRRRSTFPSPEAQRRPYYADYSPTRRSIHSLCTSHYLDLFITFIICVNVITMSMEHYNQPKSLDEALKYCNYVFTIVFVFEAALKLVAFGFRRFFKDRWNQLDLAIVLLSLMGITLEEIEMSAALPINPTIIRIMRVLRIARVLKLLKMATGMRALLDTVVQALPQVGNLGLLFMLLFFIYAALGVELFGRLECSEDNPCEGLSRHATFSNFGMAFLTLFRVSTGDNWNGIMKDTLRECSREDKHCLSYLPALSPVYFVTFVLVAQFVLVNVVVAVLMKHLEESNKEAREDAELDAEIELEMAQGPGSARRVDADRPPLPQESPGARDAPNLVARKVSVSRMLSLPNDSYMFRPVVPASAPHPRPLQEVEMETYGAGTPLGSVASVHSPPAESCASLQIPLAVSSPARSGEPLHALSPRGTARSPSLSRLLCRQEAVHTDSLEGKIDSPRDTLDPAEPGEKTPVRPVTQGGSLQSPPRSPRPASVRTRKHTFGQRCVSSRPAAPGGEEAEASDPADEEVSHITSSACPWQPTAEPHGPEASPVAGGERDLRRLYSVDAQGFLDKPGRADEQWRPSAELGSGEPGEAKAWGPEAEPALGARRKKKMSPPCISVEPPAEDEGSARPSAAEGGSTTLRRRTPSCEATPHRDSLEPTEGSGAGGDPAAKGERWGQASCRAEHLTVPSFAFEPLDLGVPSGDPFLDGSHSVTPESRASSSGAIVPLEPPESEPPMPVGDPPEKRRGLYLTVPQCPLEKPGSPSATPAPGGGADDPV
T3 sequence (P11940 whole entry, the tested form may be a part): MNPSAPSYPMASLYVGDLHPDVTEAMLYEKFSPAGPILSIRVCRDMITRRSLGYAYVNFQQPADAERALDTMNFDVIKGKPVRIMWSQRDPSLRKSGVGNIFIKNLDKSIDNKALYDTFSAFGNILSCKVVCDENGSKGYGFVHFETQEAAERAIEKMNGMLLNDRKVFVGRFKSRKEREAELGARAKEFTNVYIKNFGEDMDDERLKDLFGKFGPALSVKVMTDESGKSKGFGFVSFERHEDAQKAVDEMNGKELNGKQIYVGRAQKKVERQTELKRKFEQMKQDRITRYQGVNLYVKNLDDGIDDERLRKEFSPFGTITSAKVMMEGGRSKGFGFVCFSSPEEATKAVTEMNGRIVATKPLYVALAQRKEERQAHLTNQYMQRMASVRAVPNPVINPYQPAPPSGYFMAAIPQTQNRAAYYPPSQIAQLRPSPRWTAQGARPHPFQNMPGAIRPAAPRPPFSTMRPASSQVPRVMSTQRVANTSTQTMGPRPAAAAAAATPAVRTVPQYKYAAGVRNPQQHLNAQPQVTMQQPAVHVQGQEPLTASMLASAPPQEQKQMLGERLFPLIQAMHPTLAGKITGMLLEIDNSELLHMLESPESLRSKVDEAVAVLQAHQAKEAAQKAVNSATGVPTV
Alkaline phosphatase, placental type, sequence (P05187 whole entry): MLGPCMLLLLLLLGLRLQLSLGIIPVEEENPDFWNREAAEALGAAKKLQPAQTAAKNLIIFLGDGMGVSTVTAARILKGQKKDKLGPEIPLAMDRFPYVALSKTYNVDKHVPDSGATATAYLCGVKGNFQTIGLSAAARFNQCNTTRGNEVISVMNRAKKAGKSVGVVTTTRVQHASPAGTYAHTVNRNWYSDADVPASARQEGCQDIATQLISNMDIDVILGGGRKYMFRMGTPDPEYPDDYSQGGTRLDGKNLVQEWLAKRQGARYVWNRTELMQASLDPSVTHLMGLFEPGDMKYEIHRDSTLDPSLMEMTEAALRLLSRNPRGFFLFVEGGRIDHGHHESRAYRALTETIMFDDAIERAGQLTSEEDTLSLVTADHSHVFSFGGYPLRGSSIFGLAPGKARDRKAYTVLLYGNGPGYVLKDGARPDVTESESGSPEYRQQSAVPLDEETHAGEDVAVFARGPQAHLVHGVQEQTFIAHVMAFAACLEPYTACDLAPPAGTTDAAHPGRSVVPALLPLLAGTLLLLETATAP
Beta-galactosidase, sequence (Q8VNN2 whole entry): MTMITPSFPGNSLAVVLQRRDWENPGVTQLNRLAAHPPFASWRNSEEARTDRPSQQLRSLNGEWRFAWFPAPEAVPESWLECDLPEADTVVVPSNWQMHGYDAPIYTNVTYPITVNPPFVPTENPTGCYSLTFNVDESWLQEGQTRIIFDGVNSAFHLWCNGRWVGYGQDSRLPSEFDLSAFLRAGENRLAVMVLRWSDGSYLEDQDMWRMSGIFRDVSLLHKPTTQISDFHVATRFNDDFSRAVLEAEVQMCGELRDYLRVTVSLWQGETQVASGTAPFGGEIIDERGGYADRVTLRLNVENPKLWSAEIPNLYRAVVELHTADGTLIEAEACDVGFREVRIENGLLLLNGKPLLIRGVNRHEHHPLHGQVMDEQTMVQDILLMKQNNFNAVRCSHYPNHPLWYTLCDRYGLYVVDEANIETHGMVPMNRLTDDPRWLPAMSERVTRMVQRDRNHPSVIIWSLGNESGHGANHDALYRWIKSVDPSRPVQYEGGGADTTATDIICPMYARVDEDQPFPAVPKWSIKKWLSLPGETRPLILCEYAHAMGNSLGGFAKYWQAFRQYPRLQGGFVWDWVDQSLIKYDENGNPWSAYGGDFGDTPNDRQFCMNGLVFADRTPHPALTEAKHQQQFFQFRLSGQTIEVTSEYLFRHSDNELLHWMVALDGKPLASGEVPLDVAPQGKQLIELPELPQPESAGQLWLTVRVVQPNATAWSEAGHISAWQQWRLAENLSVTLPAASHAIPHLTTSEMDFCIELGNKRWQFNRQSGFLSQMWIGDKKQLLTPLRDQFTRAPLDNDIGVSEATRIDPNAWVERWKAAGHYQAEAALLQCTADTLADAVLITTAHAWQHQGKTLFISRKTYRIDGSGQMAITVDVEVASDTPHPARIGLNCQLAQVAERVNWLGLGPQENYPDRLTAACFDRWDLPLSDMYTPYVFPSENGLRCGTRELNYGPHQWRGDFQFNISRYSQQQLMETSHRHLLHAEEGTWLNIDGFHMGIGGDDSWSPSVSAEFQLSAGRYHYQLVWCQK

## Cc1cccc(-c2nc(C[S+]([O-])CC(=O)NCCCSC3CCCCC3)c(C)o2)c1 (stereo unspecified)
[1]
  EC50: 3.94 µM (active)

## O=C(CN1C(=O)C2C3CCC(C3)C2C1=O)OCC(=O)c1cccc([N+](=O)[O-])c1 (stereo unspecified)
Beta-galactosidase
  EC50: > 40 µM (inactive)
[2]
  IC50: 26.3 µM (not active)

## O=C(NC1CCN(C(=O)NCc2ccccc2)CC1)c1ccco1
Aminopeptidase N
  IC50: 93.2 µM (active)

## COc1ccc(S(=O)(=O)N2CCN(c3ccc(C)cc3C)CC2)cc1OC
[1]
  EC50: 9.63 µM (active)

## Cc1cc2cc(CNC(=O)c3ccc(Br)o3)ccc2[nH]1
[3]
  IC50: 49.6 µM (inactive)
[1]
  EC50: 10.1 µM (active)
[4]
  IC50: 45.1 µM (inactive)

## CC(C)(C)n1nnnc1C(c1cc2cc3c(cc2nc1O)OCCO3)N1CCSCC1 (stereo unspecified)
Escherichia coli
  AC50: 28.6 µM (active)

## O=C(Cn1cnc2ccccc21)c1ccc(O)c(O)c1
[5]
  IC50: 14 µM (active)

## NS(=O)(=O)c1ccc(NC(=O)CSc2nnc(-c3ccc(O)cc3)o2)cc1
Escherichia coli
  AC50: 127 µM (active)

## COc1cc(/C(C)=N\NC(N)=S)cc(OC)c1OC
[6]
  IC50: > 80 µM (inactive)

## COc1ccc(-c2nnc(SCC(=O)c3ccc(O)c(O)c3)n2-c2ccccc2)cc1
[5]
  IC50: > 100 µM (inactive)
[7]
  IC50: 7.22 µM (active)

## Cc1ccc2c(Cl)cc(Cl)c(O)c2n1 [CHLORQUINALDOL]
Vero
  IC50: > 25 µM (active)
Escherichia coli
  AC50: 54.3 µM (active)
